For 10 compounds, IC50 results are on record in patent US11021479B2, “Pyridoquinazoline derivatives useful as protein kinase inhibitors” (ONCOSTELLAE, S.L., priority 2017, dated 2021).

What all share (assay type): biochemical
For assay [1], the target named is T1, JAK3 (Homo sapiens, UniProt P52333).
T1 construct: purchased Carna Biosciences 08-046
Kind of assay: Functional assay of protein Janus kinases (Caliper mobility shift), JAK3. The conditions noted are these: ATP 8 μM, incubation 30 min; read-out: JAK3 enzymatic activity (IC50) score. As for the experimental part: (§1) The functional assays of protein Janus kinases were carried out in 384-well plates using a final volume of 30 μl. […] The reaction was reads in a “Caliper EzReader LabChip 3000” (Caliper, Hopkinton, Mass.) reader, based on electrophoretic mobility of the fluorescent substrate and the phosphorylated product.
(§2) The inhibition percentages were calculated by comparison between control reactions, for 100% of inhibition and reactions with only DMSO for 0% of inhibition.

Assay [2] addresses T2, JAK1 (Homo sapiens, UniProt P23458).
T2 construct: purchased Carna Biosciences 08-144
The experiment in a line: Functional assay of protein Janus kinases (Caliper mobility shift), JAK1. The conditions noted are these: ATP 100 μM, incubation 150 min; read-out: JAK1 enzymatic activity (IC50) score. On the procedure: as §1, §2

The target of assay [3] is T3, TYK2 (Homo sapiens, UniProt P29597).
T3 construct: purchased Carna Biosciences 08-147
T3 sequence (P29597 871-1187 limits assumed): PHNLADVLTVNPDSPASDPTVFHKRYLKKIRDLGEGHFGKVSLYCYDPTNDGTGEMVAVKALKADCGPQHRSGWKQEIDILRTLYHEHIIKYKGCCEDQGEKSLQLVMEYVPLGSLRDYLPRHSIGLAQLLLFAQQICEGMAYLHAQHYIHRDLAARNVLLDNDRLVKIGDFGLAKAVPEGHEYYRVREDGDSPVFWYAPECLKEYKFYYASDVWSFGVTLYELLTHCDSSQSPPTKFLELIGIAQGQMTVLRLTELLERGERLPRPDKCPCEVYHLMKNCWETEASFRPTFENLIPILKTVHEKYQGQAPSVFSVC
The experiment in a line: Functional assay of protein Janus kinases (Caliper mobility shift), TYK2. The conditions noted are these: ATP 20 μM, incubation 45 min; read-out: TYK2 enzymatic activity (IC50) score. As for the experimental part: as §1, §2

Assay [4] addresses T4, JAK2 (Homo sapiens, UniProt O60674).
T4 construct: purchased Carna Biosciences 08-045
The experiment in a line: Functional assay of protein Janus kinases (Caliper mobility shift), JAK2. The conditions noted are these: ATP 300 μM, incubation 30 min; read-out: JAK2 enzymatic activity (IC50) score. As for the experimental part:
as §1, §2

T4 sequence (O60674 826-1132 limits assumed): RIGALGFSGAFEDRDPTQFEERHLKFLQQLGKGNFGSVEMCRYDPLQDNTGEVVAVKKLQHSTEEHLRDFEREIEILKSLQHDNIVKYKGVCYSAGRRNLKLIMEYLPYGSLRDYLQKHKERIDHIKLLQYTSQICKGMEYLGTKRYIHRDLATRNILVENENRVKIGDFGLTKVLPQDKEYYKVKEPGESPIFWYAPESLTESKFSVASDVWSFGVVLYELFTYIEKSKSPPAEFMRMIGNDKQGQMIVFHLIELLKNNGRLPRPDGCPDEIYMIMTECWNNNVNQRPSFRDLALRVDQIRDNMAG
T1 sequence (P52333 795-1124 limits assumed): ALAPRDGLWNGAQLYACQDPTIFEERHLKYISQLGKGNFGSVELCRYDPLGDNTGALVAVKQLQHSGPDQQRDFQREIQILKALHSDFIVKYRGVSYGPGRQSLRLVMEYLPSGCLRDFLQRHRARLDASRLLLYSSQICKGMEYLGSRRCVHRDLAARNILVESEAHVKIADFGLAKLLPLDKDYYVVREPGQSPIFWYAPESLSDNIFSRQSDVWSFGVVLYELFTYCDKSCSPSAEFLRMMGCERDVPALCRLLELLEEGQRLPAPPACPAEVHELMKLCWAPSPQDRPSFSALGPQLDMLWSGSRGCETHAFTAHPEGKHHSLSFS
T2 sequence (P23458 850-1154 limits assumed): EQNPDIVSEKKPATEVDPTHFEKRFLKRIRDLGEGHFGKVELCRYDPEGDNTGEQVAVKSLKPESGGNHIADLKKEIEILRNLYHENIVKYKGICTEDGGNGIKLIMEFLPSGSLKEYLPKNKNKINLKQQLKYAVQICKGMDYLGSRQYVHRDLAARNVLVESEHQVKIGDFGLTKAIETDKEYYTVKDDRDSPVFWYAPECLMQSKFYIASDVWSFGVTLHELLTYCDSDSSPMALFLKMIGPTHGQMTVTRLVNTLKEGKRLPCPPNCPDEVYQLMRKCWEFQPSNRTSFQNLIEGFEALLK

Turning to `O=C(NC1CCOC1)c1cccn2c(=O)c3cc(C4CC4)ccc3nc12` (centres unmarked) [Example 14, 2-cyclopropyl-11-oxo-N-(tetrahydrofuran-3-yl)-11H-pyrido[2,1-b]quinazoline-6-carboxamide], the IC50 was 100 to 1000 nM in assay [1], more than 1000 nM in assay [2], less than 100 nM in assay [3] and more than 1000 nM in assay [4].
Regarding `CN1CCN(c2ccc3nc4c(C(=O)N[C@H]5CCCC[C@H]5O)cccn4c(=O)c3c2)CC1` [Example 37, N-((1S,2R)-2-hydroxycyclohexyl)-2-(4-methylpiperazin-1-yl)-11-oxo-11H-pyrido[2,1-b]quinazoline-6-carboxamide], the results for the IC50 in assay [1] and in assay [3] were 100 to 1000 nM and less than 100 nM, respectively.
On to `O=C(N[C@H]1CCCC[C@H]1O)c1cccn2c(=O)c3cc(-c4ccncc4)ccc3nc12` [Example 34, N-((1S,2R)-2-hydroxycyclohexyl)-11-oxo-2-(pyridin-4-yl)-11H-pyrido[2,1-b]quinazoline-6-carboxamide], for which the IC50 is 100 to 1000 nM in assay [1], more than 1000 nM in assay [2], 100 to 1000 nM in assay [3] and more than 1000 nM in assay [4].
Take `O=C(NC1CCCCC1)c1cccn2c(=O)c3cc(Br)ccc3nc12` [Example 26, 2-bromo-N-cyclohexyl-11-oxo-11H-pyrido[2,1-b]quinazoline-6-carboxamide]: the IC50 in assay [1] is 100 to 1000 nM; in assay [2], more than 1000 nM; in assay [3], 100 to 1000 nM; in assay [4], more than 1000 nM.
For `O=C(N[C@H]1CC[C@H](O)CC1)c1cccn2c(=O)c3cc(C4CC4)ccc3nc12` [Example 7, 2-cyclopropyl-N-((1R,4R)-4-hydroxycyclohexyl)-11-oxo-11H-pyrido[2,1-b]quinazoline-6-carboxamide], the IC50 in assay [1] is less than 100 nM; in assay [2], more than 1000 nM; in assay [3], 100 to 1000 nM; in assay [4] it was more than 1000 nM.
Take `O=C(N[C@H]1CCCC[C@@H]1O)c1cccn2c(=O)c3cc(C4CC4)ccc3nc12` [Example 12, 2-cyclopropyl-N-((1S,2S)-2-hydroxycyclohexyl)-11-oxo-11H-pyrido[2,1-b]quinazoline-6-carboxamide]: the concentration for half-maximal inhibition (IC50) in assay [1] is 100 to 1000 nM; in assay [2], more than 1000 nM; in assay [3] it was 100 to 1000 nM; in assay [4], more than 1000 nM.
Turning to `O=C(NC1CCC(F)(F)CC1)c1cccn2c(=O)c3cc(C4CC4)ccc3nc12` [Example 15, 2-cyclopropyl-N-(4,4-difluorocyclohexyl)-11-oxo-11H-pyrido[2,1-b]quinazoline-6-carboxamide], the IC50 was less than 100 nM in assay [1], more than 1000 nM in assay [2], 100 to 1000 nM in assay [3] and more than 1000 nM in assay [4].
Take `O=C(NC1CCOCC1)c1cccn2c(=O)c3cc(C4CC4)ccc3nc12` [Example 4, 2-cyclopropyl-11-oxo-N-(tetrahydro-2H-pyran-4-yl)-11H-pyrido[2,1-b]quinazoline-6-carboxamide]: the IC50 in assay [1] was 100 to 1000 nM; in assay [2], more than 1000 nM; in assay [3] it was less than 100 nM; in assay [4], more than 1000 nM.
For `CN1CCC(NC(=O)c2cccn3c(=O)c4cc(C5CC5)ccc4nc23)CC1` [Example 3, 2-cyclopropyl-N-(1-methylpiperidin-4-yl)-11-oxo-11H-pyrido[2,1-b]quinazoline-6-carboxamide], the IC50 in assay [1] is 100 to 1000 nM; in assay [2], more than 1000 nM; in assay [3] it was more than 1000 nM; in assay [4], more than 1000 nM.
As to `O=C(NC1CCCC1)c1cccn2c(=O)c3cc(Br)ccc3nc12` [Example 25, 2-bromo-N-cyclopentyl-11-oxo-11H-pyrido[2,1-b]quinazoline-6-carboxamide], the IC50 was less than 100 nM in assay [1], more than 1000 nM in assay [2], less than 100 nM in assay [3] and more than 1000 nM in assay [4].

One may read the IC50 as the concentration needed to halve the response being measured.
